Earlier results, collected in patent publication US8853212B2, “Substituted aminotetrahydrothiopyrans and derivatives thereof as dipeptidyl peptidase-IV inhibitors for the treatment of diabetes” (Merck Sharp & Dohme Corp, priority 2010, dated 2014).
One block for each compound: values may come before it.

Legend:
cardiac allograft = conditions: rats; doubled from day 7
hematopoiesis = conditions: mouse, cyclophosphamide-induced neutropenia
DPP-4 = DPP-4 (Homo sapiens (Human), UniProt P27487)
Chain of DPP-4 (P27487 39-766, species assumed): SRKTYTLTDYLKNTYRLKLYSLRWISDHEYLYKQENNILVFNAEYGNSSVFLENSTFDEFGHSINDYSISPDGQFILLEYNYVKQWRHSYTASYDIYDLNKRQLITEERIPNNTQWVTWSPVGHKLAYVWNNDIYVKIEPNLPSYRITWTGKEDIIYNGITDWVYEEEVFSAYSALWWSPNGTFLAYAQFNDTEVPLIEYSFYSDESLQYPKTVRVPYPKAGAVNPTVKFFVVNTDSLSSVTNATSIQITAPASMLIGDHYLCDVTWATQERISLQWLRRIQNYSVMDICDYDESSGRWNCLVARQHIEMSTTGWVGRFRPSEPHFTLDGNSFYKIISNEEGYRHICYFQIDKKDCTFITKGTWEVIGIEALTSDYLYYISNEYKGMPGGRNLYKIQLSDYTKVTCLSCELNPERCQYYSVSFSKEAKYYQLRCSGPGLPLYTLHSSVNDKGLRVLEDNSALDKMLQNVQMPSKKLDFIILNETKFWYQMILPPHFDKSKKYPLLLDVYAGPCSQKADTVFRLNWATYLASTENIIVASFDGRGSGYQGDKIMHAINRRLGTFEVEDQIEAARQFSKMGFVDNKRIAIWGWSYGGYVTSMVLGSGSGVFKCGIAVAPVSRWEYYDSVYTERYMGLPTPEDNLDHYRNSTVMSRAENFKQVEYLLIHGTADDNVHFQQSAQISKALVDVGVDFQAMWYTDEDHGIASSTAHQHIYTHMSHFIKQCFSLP

Compound: CC(C)N1CCC(c2ccccc2)(c2ccccc2)CC1 [Prodipine, Pro-Pro-diphenyl-phosphonate]
cardiac allograft survival (cardiac allograft): 14 day

Compound: CC(C)[C@H](N)C(=O)N1CCC[C@H]1B(O)O [Val-Bono-Pro]
hematopoiesis (hematopoiesis): stimulated hematopoiesis

degradation of GRF in plasma to GRF[3-44] (DPP-4): prevented
Compound: diprotin A
